Columns and labels:
S2R+ cells = test: mitoSOX mitochondrial superoxide staining; type: cell-based; conditions: toxin alone
Description: A) Staining was performed with mitoSOX Red Mitochondrial Superoxide dye. B) Quantification of the fluorescence intensity of the mitoSOX probe in the indicated treatments (n=3). Data is presented as mean±s.e.m. P-values were determined by paired student's t-test, *P-value<0.05.
Whether SR3677 may protect against paraquat-induced phenotypes by interfering with paraquat's activity was also assessed. Paraquat gives rise to mitochondrial superoxide species that can be detected using mitoSOX, a fluorescent probe that is targeted to mitochondria, where it may be oxidized by superoxides. The oxidized mitoSOX species fluoresces upon encountering nucleic acid. The fluorescence intensity of Schneider's S2-R^+ cells, a cell line derived from dissociated embryos with a flat morphology amenable to imaging, was assessed following treatments with paraquat or paraquat and SR3677.

HEK293 GFP Parkin cells [1] = test: High throughput small molecule screen for Parkin recruitment to mitochondria (high content imaging); type: cell-based; conditions: for rank in the kinase inhibitor library screen (rank order by z-score): 4 μM, 16 h, then CCCP 2 h, rank out of 480, low rank = activator of Parkin recruitment, high rank = inhibitor
Description: 10 uL of 0.1 mg/mL Poly-D-Lys solution was added to 384-well plates for 5 minutes, followed by a PBS wash. Plates were dried for at least 2 hours. 50 μL of 600 000 HEK293 GFP Parkin cell/mL of DMEM was dispensed into each well. After 24 hours incubation to allow the cells to adhere, 200 nL of small molecules (or DMSO in columns 1, 2, 23 and 24) were pinned. Following a 16-hour incubation, 200 nL of 5 mM CCCP were added to all wells except columns 1 and 2, into which 200 nL of DMSO was added. Following 2-hour incubation, cells were fixed with 4% paraformaldehyde (PFA) and stained with 50 μL of 1 μg/mL DAPI solution for 15 minutes. After the final PBS wash, plates were ready for high content microscopy.
Images were acquired on IN Cell Analyzer 6000 (GE Healthcare), equipped with sCMOS camera (2048×2048), and 20x/0.45 NA Plan Fluor objective (Nikon) in open aperture mode using 1×1 binning. Image analysis was performed using Columbus Image Analysis System (PerkinElmer). Nuclei were initially detected in DAPI channel, followed by whole cell segmentation in GFP channel. Using PhenoLOGIC machine learning plug-in, cells were split into 2 sub-populations: cells with even GFP-Parkin distribution and cells where GFP-Parkin was localized to mitochondria. The percentage of cells with mitochondrial GFP-Parkin was determined per well. The molecules were then rank ordered based on z-score, which is calculated using the formula: […]
where x is the percentage of cells with mitochondrial GFP-Parkin for a specific small molecule, μ is the average percentage of cells with mitochondrial Parkin in positive control columns 23 and 24, where cells are treated with CCCP only.
These cell lines were screened across 2 biological replicates with compounds from the kinase inhibitor (n=480) and Prestwick (n=1120) collections. The 3-day screening protocol consisted of (1) seeding cells, (2) pinning small molecules at 4 μM concentration and (3) inducing mitophagy with CCCP, followed by processing of plates for high content imaging. Following image acquisition, DAPI staining was used to segment cells within each image. Supervised machine learning was used to classify cells into two classes: (1) cells with cytosolic Parkin distribution and (2) those with Parkin localized to mitochondria. […] Compounds which increased the proportion of class 2 cells across 2 biological replicates, compared to the CCCP-only treated cells (FIG. 10), as indicated by their z-score (FIG. 11), were considered hits.

HEK293 GFP Parkin cells [2] = test: Parkin recruitment assay; type: cell-based
Description: HEK293 GFP Parkin cells were seeded into 12-well plates containing coverslips. Cells were treated with small molecules for 2 hours prior to mitophagy induction with 10 μM CCCP, unless indicated otherwise. Following fixation with 4% PFA, immunostaining was carried out using anti-ATP5A primary antibody and anti-mouse Alex Fluor 568.
To measure the percentage of cells with Parkin localized to mitochondria a 2 step process was employed: (1) whole cell segmentation based on GFP Parkin using CellProfiler software and (2) classification into Parkin distribution subpopulation using CellProfiler Analyst. The percentage of cells with Parkin localized to mitochondria was determined in each image. Images were taken at 20× magnification for this experiment, resulting in the classification of at least 300 cells in each treatment group per trial.

HEK293 GFP Parkin cells [3] = test: Immunoblotting of mitochondrial protein degradation after CCCP; type: cell-based; conditions: 10 μM CCCP
Description: (a) HEK293 GFP Parkin cells were treated with varying doses of SR3677 for 2 hours prior to induction of mitophagy with 10 μM CCCP for one hour. The percentage of cells with mitochondrial Parkin increased in a dose-dependent manner. […] Cell lysates were harvested, proteins were separated by SDS-PAGE and immunoblotting was performed with anti-Mfn2 and anti-actin antibodies. (c) Ponceau VDAC1 levels in each sample normalized to Ponceau staining. (d) Mfn2/actin levels in CCCP treated cells. (e) Densitometry analysis was performed to quantify Mfn2 and VDAC1 levels in each sample (n=4 independent experiments).
HEK293 GFP Parkin cells co-treated with 0.5 μM SR3677 or DMSO and 10 μM CCCP for the indicated time (hours). Cell lysates were separated by SDS-PAGE and immunoblotting was performed to assess turnover of IMM/matrix substrates (A) ATP5A, (B) UQCRC2 and (C) COXIV. Densitometry analysis was performed. Protein levels were normalized to Ponceau. Data is expressed as mean±s.e.m (n=6, 7 and 8 for a, b and c, respectively. 4) P-values were determined by paired student's t-test, *P<0.05.
Lysates were harvested using lysis buffer (0.1M Tris HCl, 0.01% SDS, pH 9) with 1× protease inhibitor cocktail (BioShop, PIC002.1). Lysates were then heated at 95° C. for 20 minutes with vortexing performed at 5-minute intervals. The BCA assay (Pierce, 23227) was performed to determine protein concentration, to standardize protein loading across samples to be compared. 12% SDS-PAGE gels were used to run samples to be analyzed for LC3 conversation and for Tom20 and 10% gels were run for all other samples. Transfer of proteins onto PVDF membrane (Immobilon, IPVH00010) was performed at 110V for 80 minutes or at 36V for 8 hours. Membranes were blocked with 5% skim milk in TBST (1×TBS, 0.1% Tween-20 [BioShop, 1M23298]) for 30 minutes prior to incubation in primary antibodies at a dilution of 1:1000 for all antibodies except anti-ROCK2 and anti-LC3, which were used at a dilution of 1:5000. Visualization of proteins was performed using ECL (BioRad, 11705062).
Densitometry was performed by normalizing bands corresponding to the protein of interest to a loading control such as actin using ImageLab 6.0 software (BioRad).

ROCK2 = ROCK2 (Homo sapiens, UniProt O75116); conditions: biochemical and cell-based assays, previous studies; cited from earlier work
[4] = cited from earlier work
[5] = test system: differentiated SH-SY5Y cells; test: Cell viability determination (ATP levels normalized to protein); type: cell-based; conditions: 500 μM, 24 hours
Description: SH-SY5Y cells were differentiated according to previously established protocol consisting of sequential treatment with retinoic acid followed by brain-derived neurotrophic factor^10. Cells were then seeded into white 96-well plates with white bottom and allowed to adhere overnight. Varying doses of SR3677 were combined with 500 μM paraquat and administered for 24 hours. Controls treated with 0.5 μM SR3677, equivalent volume DMSO and paraquat alone were also included. Following 24-hour incubation, cell media was aspirated and THE lysis buffer (50 mM Tris-HCl, 100 mM NaCl, 0.1 mM EDTA) containing protease inhibitor cocktail was added to each well. Half of the lysate volume was removed and aliquoted into a separate 96-well plate. ATP levels were measured in the opaque plate using the ATP determination (ThermoFisher A22066) assay kit and protein concentrations were measured using the Pierce BCA (ThermoFisher #23225) assay kit. ATP levels were normalized to protein concentration and then by the ratio for cells treated with paraquat alone in a control well on each plate.

Canton(S) flies = type: in vivo, Drosophila; conditions: 10 mM paraquat in food
Description: Fresh vials containing standard fly food supplemented with the indicated treatments were changed out every 2 days. The number of flies surviving each day was counted and log-rank tests were performed to determine statistical significance. […] The number of flies to climb beyond 9.5 cm every 10 seconds was assessed. The percentage of flies in each treatment to cross this line was determined. The climbing ability of each treatment was normalized to the control group treated with water only. […] Log-rank tests were performed to determine p-values for survival analyses (a, b, g), *P<0.05. P-values were determined by one-tailed paired student's t-test for all climbing assays (c-e, h), *P<0.05. Data is expressed as mean±s.e.m. All error bars represent s.e.m
Drosophila aged 7 days are fed food supplemented with either water (control), 1 mM SR3677, 10 mM paraquat or SR3677 in combination with paraquat. The survival of flies was recorded each day following administration of the treatments and climbing abilities were tested every 2 days by performing negative geotaxis assays.

Drosophila = type: in vivo; conditions: Canton(S), 10 mM paraquat
Description: Fresh vials containing standard fly food supplemented with the indicated treatments were changed out every 2 days. The number of flies surviving each day was counted and log-rank tests were performed to determine statistical significance. 20 flies per treatment, n=5 (c) The climbing ability of flies treated as described in (a and bin) was assessed 4 days following initial administration of treatments. The number of flies to climb beyond 9.5 cm every 10 seconds was assessed. The percentage of flies in each treatment to cross this line was determined. The climbing ability of each treatment was normalized to the control group treated with water only. 20 flies per treatment, n=5. (d) The climbing ability of UAS-park^RNAi and ddc-GAL4>UAS-park^RNAi flies fed either paraquat or paraquat in combination with SR3677. 20 flies per treatment, n=7. (e) Proteins lysates from UAS-park^RNAi or tubulin>UAS-park^RNAi whole flies were separated by SDS-PAGE. Immunoblotting with anti-Parkin and anti-actin antibody was performed. (f) The climbing ability of TH-GAL flies fed either paraquat or paraquat in combination with SR3677. (g) Survival of heteroplasmic mt:Coll^T300l flies fed fly food supplemented with water or 2 mM SR3677 and wild-type Canton(S) flies (n=3 independent experiments). (h) The climbing ability of heteroplasmic mt:Coll^T300l flies fed either water or 2 mM SR3677 for 7 days. Log-rank tests were performed to determine p-values for survival analyses (a, b, g), *P<0.05. P-values were determined by one-tailed paired student's t-test for all climbing assays (c-e, h), *P<0.05. Data is expressed as mean±s.e.m. All error bars represent s.e.m
Male Canton(S) Drosophila were aged 7 days prior to feeding with standard fly food supplemented with water, 10 mM paraquat, 1 mM SR3677, or with combinations of these chemicals. Flies were placed into new vials containing fresh food supplemented with the treatments previously administered and 2 days later, climbing assays were performed. Flies were placed into plastic cylinder vials and tapped down, so all flies fell to the bottom. The number of flies to climb beyond 12.5 cm was counted every 10 s and values are represented as the percentage of total flies in each treatment group.

Sequence of ROCK2 (O75116 whole entry): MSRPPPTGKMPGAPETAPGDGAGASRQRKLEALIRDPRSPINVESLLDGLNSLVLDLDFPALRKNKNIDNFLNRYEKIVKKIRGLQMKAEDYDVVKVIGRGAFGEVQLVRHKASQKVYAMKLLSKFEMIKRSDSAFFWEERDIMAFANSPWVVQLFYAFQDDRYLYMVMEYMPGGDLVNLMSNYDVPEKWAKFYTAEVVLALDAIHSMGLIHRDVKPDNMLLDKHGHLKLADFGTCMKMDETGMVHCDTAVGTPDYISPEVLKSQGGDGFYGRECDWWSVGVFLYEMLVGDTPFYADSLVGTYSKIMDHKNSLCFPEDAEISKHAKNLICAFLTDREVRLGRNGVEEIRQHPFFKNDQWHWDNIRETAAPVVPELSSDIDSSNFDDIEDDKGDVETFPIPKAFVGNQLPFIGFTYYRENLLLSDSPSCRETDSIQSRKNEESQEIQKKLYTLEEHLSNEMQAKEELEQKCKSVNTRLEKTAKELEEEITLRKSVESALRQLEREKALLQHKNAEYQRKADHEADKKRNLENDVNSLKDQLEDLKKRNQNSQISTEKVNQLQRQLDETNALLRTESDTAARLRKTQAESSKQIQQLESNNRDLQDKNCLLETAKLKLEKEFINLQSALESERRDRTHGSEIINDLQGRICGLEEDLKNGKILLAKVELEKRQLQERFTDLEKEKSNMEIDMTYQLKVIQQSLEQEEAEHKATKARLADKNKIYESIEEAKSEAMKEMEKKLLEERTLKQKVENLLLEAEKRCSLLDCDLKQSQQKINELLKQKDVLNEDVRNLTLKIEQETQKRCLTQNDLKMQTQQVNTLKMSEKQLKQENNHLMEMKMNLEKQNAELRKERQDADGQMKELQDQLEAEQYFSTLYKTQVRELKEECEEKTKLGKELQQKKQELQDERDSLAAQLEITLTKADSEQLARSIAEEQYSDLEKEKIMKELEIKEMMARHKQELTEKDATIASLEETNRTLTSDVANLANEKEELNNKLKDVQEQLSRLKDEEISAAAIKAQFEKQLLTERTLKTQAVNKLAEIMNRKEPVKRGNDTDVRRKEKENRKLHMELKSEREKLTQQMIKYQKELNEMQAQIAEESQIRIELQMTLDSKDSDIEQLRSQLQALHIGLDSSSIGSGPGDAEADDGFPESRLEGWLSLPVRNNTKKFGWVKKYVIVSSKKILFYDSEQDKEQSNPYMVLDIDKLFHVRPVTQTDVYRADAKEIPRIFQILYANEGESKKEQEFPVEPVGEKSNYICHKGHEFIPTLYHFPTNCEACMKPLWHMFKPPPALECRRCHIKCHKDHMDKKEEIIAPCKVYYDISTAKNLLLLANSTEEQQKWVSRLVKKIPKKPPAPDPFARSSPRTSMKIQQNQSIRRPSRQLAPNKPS

CC(C)(C)OO [luperox]
fluorescence intensity of mitoSOX (S2R+ cells): increases the fluorescence intensity of mitoSOX

NC(=O)Nc1cc(-c2cccc(F)c2)sc1C(=O)N[C@H]1CCCNC1 [AZD-7762]
rank in the kinase inhibitor library screen (rank order by z-score) (HEK293 GFP Parkin cells [1]): 413/480

O=C(Nc1ccncc1)Nc1c(Cl)cc(Cl)cc1Cl [rho kinase inhibitor II]
class in the screen (FIG. 1b) (HEK293 GFP Parkin cells [1]; ROCK inhibitors, 4 μM plus CCCP): Enhancers of Parkin recruitment

O=c1[nH]c2ccc(Cl)cc2c(N[C@@H]2CN3CCC2CC3)c1-c1nc2ccccc2[nH]1 [CHIR-124]
rank in the kinase inhibitor library screen (rank order by z-score) (HEK293 GFP Parkin cells [1]): 403/480

C[C@@H](N)c1ccc(C(=O)Nc2ccnc3[nH]ccc23)cc1 [Y39983]
rank in the kinase inhibitor library screen (rank order by z-score) (HEK293 GFP Parkin cells [1]): 5/480
Parkin recruitment on re-test (HEK293 GFP Parkin cells [2]; 10 μM, 2-hour treatment, CCCP): recapitulated the effects observed following overnight incubation
Parkin distribution in the absence of CCCP (HEK293 GFP Parkin cells [2]; compound alone): diffuse
concentration administered to enhance Mfn2 degradation (HEK293 GFP Parkin cells [3]): 10 µM
Mfn2 degradation following CCCP (HEK293 GFP Parkin cells [3]; 2 h pre-treatment, Y39983 10 μM, SR3677 0.5 μM): Increased degradation of Mfn2
ROCK2 inhibition (ROCK2): sufficiently inhibit both ROCK1 and ROCK2
cell permeability [4]: poor cell permeability

Cc1cnc(Nc2ccc(OCCN3CCCC3)cc2)nc1Nc1cccc(S(=O)(=O)NC(C)(C)C)c1 [TG-101348]
rank in the kinase inhibitor library screen (rank order by z-score) (HEK293 GFP Parkin cells [1]): 418/480

CN[C@@H]1C[C@H]2O[C@@](C)([C@@H]1OC)n1c3ccccc3c3c4c(c5c6ccccc6n2c5c31)C(=O)NC4 [Staurosporine]
position among hits of the screen (HEK293 GFP Parkin cells [1]; known activator of Parkin-mediated mitophagy): ≤ 0.3%

C[n+]1ccc(-c2cc[n+](C)cc2)cc1 [Paraquat]
cell viability, paraquat alone [5]: reduced the viability of cells
survival of flies, paraquat alone (Canton(S) flies): reduced
climbing ability, paraquat alone (Drosophila): impairs the climbing ability of flies over time
fluorescence intensity of mitoSOX (S2R+ cells): increases the fluorescence intensity of mitoSOX

NC(=O)c1ccc2nc(-c3ccc(Oc4ccc(Cl)cc4)cc3)[nH]c2c1 [Chk2 inhibitor II]
rank in the kinase inhibitor library screen (rank order by z-score) (HEK293 GFP Parkin cells [1]): 402/480
